Some test systems named below: 786-0 renal; CAKI-1 renal; K-562 leukemia; LOX IMVI melanoma; MALME-3M melanoma; OVCAR-4 ovarian; OVCAR-8 ovarian; SW-620 colon; U251 CNS; UACC-62 melanoma.
Assay in all cases: DTP human tumour cell line panel, 48 h

This is an account of results in PubChem BioAssay (NCI).

“And” between values parts separate entries of the source, which are not always exact repeats. Identical values can stand only once.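 Following 48 hours of exposure in 96-well plates, responses at five concentrations were used to interpolate endpoints linearly. GI50: concentration for 50% inhibition of growth. TGI denotes the concentration required for complete inhibition of growth.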 Some results are limits rather than exact numbers.

The term GI50 denotes the concentration that inhibits growth by half. For orientation: TGI means the concentration giving total growth inhibition. A low value points to more potent growth arrest.

On to `NC(=Nc1nc(-c2ccccn2)cc2ccccc12)c1ccccn1`, for which the GI50 with 786-0 renal was 0.0177 µM; in the assay with CAKI-1 renal, 0.0422 µM; in the assay on K-562 leukemia, 0.0199 µM; in the assay on LOX IMVI melanoma, 0.158 µM; in the assay with MALME-3M melanoma, 0.126 µM; with OVCAR-4 ovarian, 0.0798 µM. The GI50 was 0.0505 µM with OVCAR-8 ovarian, 0.0505 µM in the assay on SW-620 colon, 0.111 µM in the assay with U251 CNS and 0.0492 µM with UACC-62 melanoma. The TGI in the assay with CAKI-1 renal was greater than 11.9 µM; with K-562 leukemia, 5.3 µM; with LOX IMVI melanoma, 0.677 µM and 1.23 µM; in the assay on OVCAR-8 ovarian, 15.5 µM; in the assay with SW-620 colon it was greater than 100 µM; with U251 CNS, 18.6 µM. The TGI with UACC-62 melanoma is 0.171 µM and 0.266 µM.

For `O=c1c(-c2ccc(O)cc2)coc2cc(OC3OC(CO)C(O)C(O)C3O)cc(O)c12` (stereo unspecified), the GI50 is greater than 10 µM with 786-0 renal; greater than 10 µM with CAKI-1 renal; greater than 100 µM in the assay with K-562 leukemia; greater than 100 µM in the assay with MALME-3M melanoma; greater than 100 µM with OVCAR-4 ovarian; greater than 100 µM in the assay on U251 CNS. The GI50 with UACC-62 melanoma is greater than 10 µM. For the same compound, the TGI with 786-0 renal, with CAKI-1 renal, in the assay with K-562 leukemia, with LOX IMVI melanoma, in the assay on MALME-3M melanoma and with OVCAR-4 ovarian was greater than 100 µM each time. The total growth inhibition concentration (TGI) in the assay with OVCAR-8 ovarian was greater than 100 µM; in the assay with SW-620 colon, greater than 10 µM; in the assay on U251 CNS it was greater than 100 µM; with UACC-62 melanoma, greater than 100 µM.

For `C=C1C(=O)OC2C1C(OC(=O)/C(C)=C\C)CC1(CO1)C1C(O)C=C(C)C21O` (stereo unspecified), the TGI was 8.5 µM in the assay on 786-0 renal; 6.36 µM in the assay with CAKI-1 renal; greater than 100 µM in the assay on K-562 leukemia; 30.6 µM in the assay with LOX IMVI melanoma; 7.65 µM with MALME-3M melanoma; 20.7 µM in the assay with OVCAR-4 ovarian. Moreover, the TGI came out at 6.03 µM with OVCAR-8 ovarian, 3.34 µM with SW-620 colon, 24.5 µM in the assay on U251 CNS and 5.81 µM with UACC-62 melanoma.

For the compound `N#Cc1c(N)nc(N2CCSCC2)c(C#N)c1-c1ccc(O)cc1`, the GI50 in the assay on 786-0 renal was 13.5 µM; in the assay with CAKI-1 renal, 26.7 µM; in the assay with K-562 leukemia it was 19.8 µM; in the assay on LOX IMVI melanoma it was 15.2 µM; with MALME-3M melanoma, 15.2 µM; in the assay on OVCAR-4 ovarian it was 18 µM. In addition, the GI50 is 33.6 µM with OVCAR-8 ovarian, 27.5 µM in the assay on SW-620 colon, 15 µM in the assay with U251 CNS and 13 µM in the assay on UACC-62 melanoma. Further, the TGI was 30.4 µM in the assay with 786-0 renal; greater than 100 µM in the assay on CAKI-1 renal; 58.3 µM in the assay on K-562 leukemia; 30.3 µM in the assay with LOX IMVI melanoma; 94.4 µM with MALME-3M melanoma; 67.6 µM with OVCAR-4 ovarian. Also, the TGI with OVCAR-8 ovarian is greater than 100 µM; with SW-620 colon it was greater than 100 µM; in the assay with U251 CNS it was 28.3 µM; in the assay with UACC-62 melanoma it was 26.2 µM.

Take `Cc1c(C2Cc3ccccc3N2)c2ccccc2n1C` (stereo unspecified): the TGI in the assay on 786-0 renal, in the assay on CAKI-1 renal, in the assay with K-562 leukemia, in the assay on LOX IMVI melanoma, in the assay with MALME-3M melanoma and in the assay on OVCAR-4 ovarian was greater than 100 µM each time. Moreover, the concentration for total growth inhibition (TGI) with OVCAR-8 ovarian, in the assay with SW-620 colon, with U251 CNS and in the assay with UACC-62 melanoma was greater than 100 µM in each case.

Turning to `COC(=O)C(=O)C(C(=O)C=C(C)C)C(=O)C(=O)Nc1nc2ccc([N+](=O)[O-])cc2s1` (stereo unspecified), the TGI in the assay with 786-0 renal is greater than 100 µM; with CAKI-1 renal, 94.7 µM; in the assay with K-562 leukemia, greater than 100 µM; in the assay with LOX IMVI melanoma, greater than 100 µM; in the assay on MALME-3M melanoma, greater than 100 µM; in the assay with OVCAR-4 ovarian, greater than 100 µM. For the same compound, the TGI in the assay with OVCAR-8 ovarian, with SW-620 colon, with U251 CNS and in the assay on UACC-62 melanoma was greater than 100 µM each time.

Turning to `CC1CC(C)C2=NOS3=C2C1=NO3` (stereo unspecified), the total growth inhibition concentration (TGI) in the assay with 786-0 renal, with CAKI-1 renal, with K-562 leukemia, with LOX IMVI melanoma, in the assay with MALME-3M melanoma and with OVCAR-4 ovarian was greater than 100 µM in each case. Also, the TGI in the assay on OVCAR-8 ovarian, in the assay with SW-620 colon, in the assay with U251 CNS and in the assay on UACC-62 melanoma was greater than 100 µM throughout.

For `CCCCCCN(C)Cc1ccc(OCCOc2ccc(CN(C)CCCCCC)cc2)cc1`, the GI50 with 786-0 renal is 1.44 µM; in the assay with CAKI-1 renal it was 1.35 µM; in the assay with K-562 leukemia it was 0.452 µM; with LOX IMVI melanoma it was 1.35 µM; in the assay on MALME-3M melanoma it was 1.13 µM; with OVCAR-4 ovarian, 1.17 µM. The GI50 in the assay on OVCAR-8 ovarian is 1.41 µM; in the assay with SW-620 colon, 1.48 µM; in the assay with U251 CNS it was 1.08 µM; with UACC-62 melanoma it was 1.6 µM. The TGI is 2.8 µM in the assay on 786-0 renal; 2.9 µM with CAKI-1 renal; greater than 100 µM in the assay with K-562 leukemia; 2.87 µM with LOX IMVI melanoma; 2.87 µM in the assay with MALME-3M melanoma; 2.74 µM in the assay on OVCAR-4 ovarian. Further, the TGI with OVCAR-8 ovarian was determined as 3.16 µM; in the assay with SW-620 colon, 3.13 µM; in the assay with U251 CNS, 2.37 µM; in the assay on UACC-62 melanoma, 3.4 µM.

Take `CC1=C2[C@H](c3ccccc3)C3C=CC2(c2ccccc23)N(C(=O)C(c2ccccc2)c2ccccc2)C1=O` (stereo partly specified): the TGI with 786-0 renal, in the assay on CAKI-1 renal, in the assay with K-562 leukemia, in the assay with LOX IMVI melanoma, with MALME-3M melanoma and in the assay with OVCAR-4 ovarian was greater than 100 µM throughout. Moreover, the TGI with OVCAR-8 ovarian, in the assay with SW-620 colon, in the assay on U251 CNS and in the assay on UACC-62 melanoma was greater than 100 µM in each case.

With `C[C@@H]1CC[C@@H]2[C@@H](C)C[C@H]3[C@@H]4C(C)(C)OC(=O)[C@]4(C)C(=O)[C@@]23C1=O`, the TGI in the assay with 786-0 renal, in the assay with CAKI-1 renal, with K-562 leukemia, in the assay on LOX IMVI melanoma, with MALME-3M melanoma and in the assay on OVCAR-4 ovarian was greater than 100 µM in each case. Also, the TGI in the assay with OVCAR-8 ovarian, in the assay on SW-620 colon, with U251 CNS and in the assay with UACC-62 melanoma was greater than 100 µM throughout. Also, the GI50 in the assay with U251 CNS was 31.9 µM; with UACC-62 melanoma, 70 µM.

`CC1=NN(C(=O)c2ccc(Cl)cc2)C(=O)/C1=C/c1ccco1`: the TGI in the assay with 786-0 renal, in the assay on CAKI-1 renal, in the assay with K-562 leukemia, in the assay with LOX IMVI melanoma, with MALME-3M melanoma and in the assay with OVCAR-4 ovarian was greater than 100 µM throughout. Further, the TGI in the assay with OVCAR-8 ovarian, with SW-620 colon, with U251 CNS and in the assay with UACC-62 melanoma was greater than 100 µM throughout.

For `CCCCCCCCCOC(=S)NCCCCC`, the TGI in the assay on 786-0 renal is greater than 100 µM; with CAKI-1 renal it was 73.7 µM; in the assay on K-562 leukemia it was 84.1 µM; in the assay with LOX IMVI melanoma, 29.4 µM; with MALME-3M melanoma it was 63.2 µM; with OVCAR-4 ovarian, greater than 100 µM. Besides, the TGI with OVCAR-8 ovarian was greater than 100 µM; with SW-620 colon, greater than 100 µM; in the assay on U251 CNS it was 48.6 µM; with UACC-62 melanoma, 89 µM.

Consider `CCCCCCCCCCCCCC(=O)OCC1OC(n2cc(F)c(=O)[nH]c2=O)C(N)C(OC(=O)CCCCCCCCCCCCC)C1O` (stereo unspecified), for which the TGI in the assay with 786-0 renal, with CAKI-1 renal, with K-562 leukemia, in the assay on LOX IMVI melanoma, with MALME-3M melanoma and with OVCAR-4 ovarian was greater than 100 µM throughout. Also, the TGI with OVCAR-8 ovarian, in the assay on SW-620 colon, with U251 CNS and in the assay with UACC-62 melanoma was greater than 100 µM in each case.

Regarding `CCOc1c(C#N)c2c(N)ncnc2n1C1OC(CO)C(O)C1O` (stereo unspecified), the GI50 in the assay on 786-0 renal is 3.76 µM; in the assay on CAKI-1 renal it was 3.13 µM; with K-562 leukemia it was 1.5 µM; with LOX IMVI melanoma, 2.98 µM; in the assay with MALME-3M melanoma, 3.62 µM; in the assay on OVCAR-4 ovarian it was 3.75 µM. The GI50 was 4.81 µM with OVCAR-8 ovarian, 2.18 µM in the assay on SW-620 colon, 3.21 µM in the assay on U251 CNS and 2.76 µM with UACC-62 melanoma. Further, the TGI with 786-0 renal was greater than 24.9 µM; in the assay with CAKI-1 renal, 55.9 µM; with K-562 leukemia, 16.4 µM; in the assay on LOX IMVI melanoma it was greater than 100 µM; in the assay with MALME-3M melanoma, 24.2 µM; in the assay on OVCAR-4 ovarian it was greater than 57.2 µM. The TGI with OVCAR-8 ovarian is greater than 100 µM; with SW-620 colon it was greater than 44.6 µM; with U251 CNS, greater than 100 µM; in the assay on UACC-62 melanoma, 10 µM.

As for `COc1cc(/C=C\c2cc(/C=C\c3ccc(O)c(OC)c3)n(C(=O)CNc3ccc(Cl)cc3)n2)ccc1O`, the GI50 was 3.03 µM in the assay on 786-0 renal; 3.36 µM with CAKI-1 renal; 2.59 µM in the assay on K-562 leukemia; 2.17 µM with LOX IMVI melanoma; 1.6 µM in the assay with MALME-3M melanoma; 2.88 µM in the assay with OVCAR-4 ovarian. The GI50 in the assay with OVCAR-8 ovarian is 3.63 µM; in the assay on SW-620 colon, 4.75 µM; in the assay with U251 CNS, 2.94 µM; in the assay on UACC-62 melanoma, 2.73 µM. Further, the TGI in the assay on 786-0 renal is 12.8 µM; with CAKI-1 renal it was 43.6 µM; with K-562 leukemia, 12.3 µM; with LOX IMVI melanoma it was 6.95 µM; in the assay with MALME-3M melanoma, 12 µM; with OVCAR-4 ovarian it was greater than 100 µM. The TGI in the assay with OVCAR-8 ovarian stood at 13.9 µM; in the assay on SW-620 colon, 23.2 µM; with U251 CNS, 11.8 µM; with UACC-62 melanoma it was 9.2 µM.
